These results are taken from patent EP4144350B1, “TREATMENT OR PREVENTION OF VASCULAR MALFORMATION” (Universitätsmedizin Greifswald, priority 2021, dated 2023).

Common to all, as to type: cell-based, human
Series [1] concerns CCM3^-/- CI-huVECs in co-culture with CCM3^+/+ CI-huVECs. The series is described as follows: Spike-in co-culture assay / apoptosis compound library screening: CCM3 knockout allele frequency by amplicon deep sequencing. Particulars: for Knockout allele frequencies: 10 µM of each compound, six days, added 5 h and 3 days after seeding, DMSO-treated co-culture controls 33.5 %. Here is the method: Clonally expanded CI-huVEC lines with biallelic loss-of-function variants in the first coding exon of CCM3 have been described before or were established according to a published CRISPR/Cas9 genome editing protocol. Blood outgrowth endothelial cells (BOECs) were cultured in EGM-2 medium (Lonza, Basel, Switzerland) supplemented with 18 % FCS. With the approval of the local ethics committee (University Medicine Greifswald, Germany; No.: BB 047/14a), CCM1^-/- BOECs had been established previously from CCM1^+/- BOECs of a CCM1 mutation carrier with CRISPR/Cas9 genome editing. Mutant and wild-type ECs were co-cultured in 96-well plates under standard culture conditions with the indicated mutant-to-wild-type ratios. 2500 cells were seeded per well.
An apoptosis compound library with 189 small molecules that target apoptosis, survival and proliferation was used in a high throughput screening approach (HY-L003[HY-LD-000001651]; MedChem Express, Monmouth Junction, NJ, USA). Co-cultures were treated with 10 µM of each substrate for six days. Compounds were added 5 h and 3 days after cell seeding.
NSC59984 (IUPAC: (2E)-1-(4-Methyl-1-piperazinyl)-3-(5-nitro-2-furyl)-2-propen-1-one, HY19726, MedChem Express), was used for individual experiments with the indicated concentrations.
The fraction of mutant alleles in co-culture were analysed by amplicon deep sequencing or T7EI cleavage assay. In brief, genomic target regions were first amplified by PCR. For T7E1 cleavage assays, heteroduplexes were formed and digested with T7EI enzyme (New England Biolabs, Frankfurt am Main, Germany). Cleavage products were visualised by gel electrophoresis and analysed with the Image Lab software (v6.0, Bio-Rad, Hercules, CA, USA). For NGS analysis, sequencing adapters and individual barcodes were introduced in a second round of PCR [7]. Sequencing libraries were pooled and sequenced on a MiSeq instrument with 2 x 150 cycles (Illumina, San Diego, CA, USA). The data were analysed with the SeqNext software (JSI Medical Systems, Ettenheim, Germany).

Series [2] concerns CI-huVECs. Kind of series: Bright-field microscopy of EC morphology after compound treatment. The note with it: library screening follow-up (Fig. 14).
For series [3], the system named is CCM3^+/+ and CCM3^-/- CI-huVECs. Kind of series: Cell viability after compound treatment. Particulars: for Cell viability differences between CCM3^+/+ and CCM3^-/- CI-huVECs: 72 h after treatment (Fig. 15).
Series [4] has as its system caspase-3. Kind of series: Caspase-3 activity assay. Here is the method: The proliferation rate of mutant and wild-type ECs in monoculture was quantified with the CyQuant® Cell Proliferation Assay Kit (C7026, Thermo Fisher Scientific). To discriminate the proliferation rates of CCM3^+/+ and CCM3^-/- CI-huVEC in co-culture, the CyQuant® Cell Proliferation Assay results were combined with mutant allele frequencies that had been determined by amplicon deep sequencing. To analyse their sensitivity to apoptosis, mutant and wild-type ECs were seeded in 96-well plates with 15.000 cells per well, and treated with staurosporine (S440, Sigma-Aldrich, St. Louis, MO, USA) 24 h later. The Caspase-3 DEVD-R110 Fluorometric HTS Assay Kit (30009, Biotium, Fremont, CA, USA), the Cell Meter™ Caspase 8 Activity Apoptosis Assay Kit (22798, AAT Bioquest, Sunnyvale, CA, USA), and the Cell Meter™ Caspase 9 Activity Apoptosis Assay Kit (22799, AAT Bioquest) were used following the manufacturer's instructions.

Consider `CC(C)S(=O)(=O)c1ccc2nccc(Nc3ccc4scnc4c3)c2c1` [GSK-872], for which, in series [1], the Knockout allele frequencies stood at 65.1%. In addition, the “EC morphology / endothelial phenotype” value in series [2] is given as “more compact EC morphology”. The “Cell viability differences between CCM3^+/+ and CCM3^-/- CI-huVECs” value in series [3] is given as “increased the viability of CCM3^-/- CI-huVECs”. The Cell viability result in series [3] (Fig. 15) is given as “increased cell viability at low concentrations”. Further, the “Apoptosis / caspase-3 activation” value in series [4] (Fig. 16) was “induced moderate caspase-3 activation”.

Consider `O=C(Nc1ccc(Cl)c(C(F)(F)F)c1)NC1CCC(Oc2ccc(C(F)(F)F)cn2)CC1` (stereo not shown) [UC2288, reference compound], for which the “Reversal of the NSC59984 (10 µM) effect on clonal expansion of CCM3^-/- cells” value in series [1] (UC2288 1 to 10 µM together with NSC59984 10 µM (Fig. 28)) was “could not be reversed”.

In series [1], `C=C1C(=O)O[C@@H]2C[C@@]3(C)CCCC(=C)[C@@H]3C[C@H]12` [isoalantolactone, reference compound] displayed a Knockout allele frequencies of 7.7%. Besides, in series [2], the “EC morphology / endothelial phenotype” value was “induced an abnormal endothelial phenotype and significant cell death”. In addition, the “Cell viability differences between CCM3^+/+ and CCM3^-/- CI-huVECs” value in series [3] was “No cell viability differences”. For the same compound, the Caspase-3 activities result in series [4] (treatment for 24 h, CCM3^+/+ and CCM3^-/- CI-huVECs (Fig. 16)) is “did not increase caspase-3 activities”.
